According to US8017612B2, “Piperazine compound and use thereof as a HCV polymerase inhibitor” (priority 2006, dated 2011):
Structures can show the parent of a compound that is named as a salt.

Tests used:
[1] = biological target: T1, HCV polymerase (NS5B) type 1b (Hepatitis C virus genotype 1b, UniProt P26663); assay: Assay of enzyme (HCV polymerase) inhibitory activity, type 1b enzyme; format: biochemical, HCV BK strain (type 1b); conditions: HCV polymerase inhibitory activity (IC50), 1b, type 1b enzyme 0.5 μg/ml, 25° C., 60 min
T1 construct: a region encoding NS5B (J Virol 1991 March, 65(3), 1105-13, 544 amino acids after deletion of 47 amino acids on the C-terminal); 6xHis (C); made in house; host or cells: Escherichia coli
Procedure, shortened: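 NS5B from HCV BK strain (type 1b), C-terminal 47 aa deleted, C-terminal His6-tagged, E. coli-expressed, 0.5 μg/ml, with ~450 nt substrate RNA carrying the 3′ UTR (polyU, 3′X) at 5 μg/ml. Incubation 60 min at 25 °C with 50 μM ATP/GTP/CTP, 2 μM UTP plus [3H]UTP, pH 7.5 Tris.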

[2] = biological target: T2, HCV polymerase (NS5B) type 1a (Hepatitis C virus genotype 1a, UniProt P26664); assay: Assay of enzyme (HCV polymerase) inhibitory activity, type 1a enzyme; format: biochemical, HCV type 1a (cloned from the blood of patients); conditions: HCV polymerase inhibitory activity (IC50), 1a, type 1a enzyme 1.5 μg/ml, 25° C., 60 min
T2 construct: made in house; host or cells: Escherichia coli (by the 'similar method' of the 1b enzyme)
Procedure, shortened: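 Patient-derived type 1a NS5B (C-terminal 47-aa deletion, His-tagged, E. coli-expressed) at 1.5 μg/ml was reacted with 5 μg/ml 3′UTR-containing substrate RNA, 50 μM ATP/GTP/CTP, 2 μM UTP plus [3H]UTP, pH 7.5, 25° C for 60 min. TCA-precipitated RNA radioactivity was counted; IC50 from ± compound.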

Compound CC(C)c1ccc(CNC(=O)[C@H]2CN(C(=O)CCN)CCN2S(=O)(=O)c2ccc(C(F)(F)F)cc2)cc1 [Example 189, (R)-4-(3-amino-propionyl)-1-(4-trifluoromethyl-benzenesulfonyl)-piperazine-2-carboxylic acid 4-isopropyl-benzylamide hydrochloride] has an IC50 [1] of over 1000 nM and an IC50 [2] of over 1000 nM.

CC(C)c1ccc(CNC(=O)[C@H]2CN(C(=O)CCCC(=O)O)CCN2S(=O)(=O)c2ccc(C(F)(F)F)cc2)cc1 [Example 190, 5-[(R)-3-(4-isopropyl-benzylcarbamoyl)-4-(4-trifluoromethyl-benzenesulfonyl)-piperazin-1-yl]-5-oxo-pentanoic acid] showed an IC50 [1] of 100 to 1000 nM and an IC50 [2] of over 1000 nM.

With CC(C)c1ccc(CNC(=O)[C@H]2CN(c3nc4ccccc4s3)CCN2S(=O)(=O)c2ccc(C(F)(F)F)cc2)cc1 [Example 191, (R)-4-benzothiazol-2-yl-1-(4-trifluoromethyl-benzenesulfonyl)-piperazine-2-carboxylic acid 4-isopropyl-benzylamide] the IC50 [1] was 100 to 1000 nM and the IC50 [2] was 100 to 1000 nM.

With CCOc1ccc(S(=O)(=O)N2CCN(C(C)=O)C[C@@H]2C(=O)NCc2ccc(C(C)C)cc2)cc1 [Example 192, (R)-4-acetyl-1-(4-ethoxy-benzenesulfonyl)-piperazine-2-carboxylic acid 4-isopropyl-benzylamide] the IC50 [1] was 100 to 1000 nM and the IC50 [2] was 100 to 1000 nM.

Work on CCCOc1ccc(S(=O)(=O)N2CCN(C(C)=O)C[C@@H]2C(=O)NCc2ccc(C(C)C)cc2)cc1 [Example 193, (R)-4-acetyl-1-(4-propoxy-benzenesulfonyl)-piperazine-2-carboxylic acid 4-isopropyl-benzylamide] yielded an IC50 [1] of 100 to 1000 nM and an IC50 [2] of 100 to 1000 nM.

In the case of CC(=O)N1CCN(S(=O)(=O)c2ccc(CC(C)C)cc2)[C@@H](C(=O)NCc2ccc(C(C)C)cc2)C1 [Example 194, (R)-4-acetyl-1-(4-isobutyl-benzenesulfonyl)-piperazine-2-carboxylic acid 4-isopropyl-benzylamide], the IC50 [1] is reported as under 100 nM and the IC50 [2] is reported as under 100 nM.

CC(C)c1ccc(CNC(=O)[C@H]2CN(C(=O)Cc3c[nH]cn3)CCN2S(=O)(=O)c2ccc(C(F)(F)F)cc2)cc1 [Example 195, (R)-4-(2-1H-imidazol-4-yl-acetyl)-1-(4-trifluoromethyl-benzenesulfonyl)-piperazine-2-carboxylic acid 4-isopropyl-benzylamide] gave an IC50 [1] of 100 to 1000 nM and an IC50 [2] of 100 to 1000 nM.

CC(=O)N1CCN(S(=O)(=O)C2CCCCC2)C(C(=O)NCc2ccc(C(F)(F)F)cc2)C1 (stereo not drawn) [Example 196, 4-acetyl-1-cyclohexanesulfonyl-piperazine-2-carboxylic acid 4-trifluoromethyl-benzylamide] showed an IC50 [1] of over 1000 nM and an IC50 [2] of over 1000 nM.

COc1ccc(CNC(=O)C2CN(C(C)=O)CCN2S(=O)(=O)c2ccc(C(C)C)cc2)c(OC)c1 (stereo not drawn) [Example 197, 4-acetyl-1-(4-isopropyl-benzenesulfonyl)-piperazine-2-carboxylic acid 2,4-dimethoxy-benzylamide] was tested, and the IC50 [1] was over 1000 nM and the IC50 [2] was over 1000 nM.

In the case of COc1ccc(CNC(=O)C2CN(C(C)=O)CCN2S(=O)(=O)c2ccc(C(C)C)cc2)cc1OC (stereo not drawn) [Example 198, 4-acetyl-1-(4-isopropyl-benzenesulfonyl)-piperazine-2-carboxylic acid 3,4-dimethoxy-benzylamide], the IC50 [1] is reported as over 1000 nM and the IC50 [2] is reported as over 1000 nM.

In the case of CC(C)c1ccc(CNC(=O)[C@H]2CN(C(=O)NCCCC(=O)O)CCN2S(=O)(=O)c2ccc(C(F)(F)F)cc2)cc1 [Example 199, 4-{[(R)-3-(4-isopropyl-benzylcarbamoyl)-4-(4-trifluoromethyl-benzenesulfonyl)-piperazine-1-carbonyl]-amino}-butyric acid], the IC50 [1] is reported as 100 to 1000 nM and the IC50 [2] is reported as over 1000 nM.

CC(C)c1ccc(CNC(=O)[C@H]2CN(C(=O)Nc3ccc(N(C)C)cc3)CCN2S(=O)(=O)c2ccc(C(F)(F)F)cc2)cc1 [Example 200, (R)-4-(4-trifluoromethyl-benzenesulfonyl)-piperazine-1,3-dicarboxylic acid 1-[(4-dimethylamino-phenyl)-amide] 3-(4-isopropyl-benzylamide)] was tested, and the IC50 [1] was 100 to 1000 nM and the IC50 [2] was over 1000 nM.

CC(C)c1ccc(CNC(=O)[C@H]2CN(C(=O)c3ccncc3)CCN2S(=O)(=O)c2ccc(C(F)(F)F)cc2)cc1 [Example 201, (R)-4-(pyridine-4-carbonyl)-1-(4-trifluoromethyl-benzenesulfonyl)-piperazine-2-carboxylic acid 4-isopropyl-benzylamide] gave an IC50 [1] of over 1000 nM and an IC50 [2] of over 1000 nM.

CCCN(C)c1ccc(CNC(=O)C2CN(C(C)=O)CCN2S(=O)(=O)c2ccc(C(C)C)cc2)cc1 (stereo not drawn) [Example 202, 4-acetyl-1-(4-isopropyl-benzenesulfonyl)-piperazine-2-carboxylic acid 4-(methyl-propyl-amino)-benzylamide] gave an IC50 [1] of 100 to 1000 nM and an IC50 [2] of over 1000 nM.

In the case of CC(=O)N1CCN(S(=O)(=O)c2ccc3c(c2)CCCC3)[C@@H](C(=O)NCc2ccc(C(C)C)cc2)C1 [Example 203, (R)-4-acetyl-1-(5,6,7,8-tetrahydro-naphthalene-2-sulfonyl)-piperazine-2-carboxylic acid 4-isopropyl-benzylamide], the IC50 [1] is reported as under 100 nM and the IC50 [2] is reported as 100 to 1000 nM.

CC(=O)N1CCN(S(=O)(=O)c2ccc3c(c2)CCC3)[C@@H](C(=O)NCc2ccc(C(C)C)cc2)C1 [Example 204, (R)-4-acetyl-1-(indane-5-sulfonyl)-piperazine-2-carboxylic acid 4-isopropyl-benzylamide] showed an IC50 [1] of 100 to 1000 nM and an IC50 [2] of 100 to 1000 nM.

Compound CCCc1ccc(S(=O)(=O)N2CCN(C(C)=O)C[C@@H]2C(=O)NCc2ccc(C(C)C)cc2)cc1 [Example 205, (R)-4-acetyl-1-(4-propyl-benzenesulfonyl)-piperazine-2-carboxylic acid 4-isopropyl-benzylamide] has an IC50 [1] of under 100 nM and an IC50 [2] of under 100 nM.

CC(=O)N1CCN(S(=O)(=O)c2ccc(-c3ccccc3)cc2)[C@@H](C(=O)NCc2ccc(C(C)C)cc2)C1 [Example 206, (R)-4-acetyl-1-(biphenyl-4-sulfonyl)-piperazine-2-carboxylic acid 4-isopropyl-benzylamide] was tested, and the IC50 [1] was 100 to 1000 nM and the IC50 [2] was 100 to 1000 nM.

Compound CC(=O)N1CCN(S(=O)(=O)c2ccc(OC(F)(F)F)cc2)[C@@H](C(=O)NCc2ccc(C(C)C)cc2)C1 [Example 207, (R)-4-acetyl-1-(4-trifluoromethoxy-benzenesulfonyl)-piperazine-2-carboxylic acid 4-isopropyl-benzylamide] has an IC50 [1] of under 100 nM and an IC50 [2] of under 100 nM.

In the case of CC(=O)N1CCN(S(=O)(=O)c2ccc(C(C)(C)C)cc2)[C@@H](C(=O)NCc2ccc(C(C)C)cc2)C1 [Example 208, (R)-4-acetyl-1-(4-tert-butyl-benzenesulfonyl)-piperazine-2-carboxylic acid 4-isopropyl-benzylamide], the IC50 [1] is reported as under 100 nM and the IC50 [2] is reported as under 100 nM.

Compound CN(C)c1ccc(CNC(=O)[C@H]2CNCCN2S(=O)(=O)c2ccc(C(F)(F)F)cc2)cc1 [Example 209, (R)-1-(4-trifluoromethyl-benzenesulfonyl)-piperazine-2-carboxylic acid 4-dimethylamino-benzylamide dihydrochloride] has an IC50 [1] of over 1000 nM and an IC50 [2] of over 1000 nM.
